Source: patent US20080300281A1, “Inhibition of p38 Kinase Activity Using Aryl and Heteroaryl Substituted Heterocyclic Ureas” (priority 1997, published 2008)

melting point: 195 to 198 °C
SMILES: CC(C)(C)c1cc(NC(=O)Nc2cccc(Cl)c2Cl)c(-c2ccncc2)o1 [Entry 38, N-(2-(4-Pyridinyl)-5-tert-butyl-3-furyl)-N′-(2,3-dichlorophenyl)urea]
